# Reference: patent publication US6743818B2, “Cyclobutaindolecarboxamide compounds” (Les Laboratoires Servier, priority 2000, dated 2004)
# Columns and labels:
# [1] = test system: Male mice of the NMRI strain; experiment: Marble-burying test in the mouse; format: in vivo; settings: s.c.; inhibition of spontaneous marble-burying, 30 minutes' free exploration
# Description: This test allows evaluation of the capacity of pharmacological agents to inhibit the spontaneous marble-burying behaviour of mice, the inhibition being predictive of antidepressant and/or anti-impulsive action. Male mice of the NMRI strain (Iffa-Credo, l'Arbresle, France) weighing from 20 to 25 g on the day of the experiment are placed individually in Macrolon boxes (30×18×19 cm) containing 5 cm of sawdust and covered with a perforated plexiglass plate. Twenty four “tiger's eye” glass marbles are evenly distributed on the sawdust at the periphery of the box. At the end of 30 minutes' free exploration, the animals are removed from the box and the number of buried marbles is counted.
# male Wistar rats = experiment: Vogel conflict test; format: in vivo, rat; settings: s.c.; for Punished licks (1 shock/20 licks): 3 minutes of test
# Procedure: The test is carried out on male Wistar rats (IFFA-CREDO) weighing from 230 to 250 g, which are kept in groups of 4 on sawdust in cages in an animal house, with free access to food and drink, for 5 days before they are used, under the following conditions: temperature (21±1° C.), humidity (60±5%) and a 12 hour diurnal cycle (07:00 to 19:00 hours).
# On the Monday following their arrival, the animals are transferred to the experiment room where they stay until Friday, the day of the test. For 4 days, from Monday to Thursday inclusive, the animals have access to drink for only one hour per day (from 09:00 to 10:00 hours).
# On the day before the test, the animals are isolated from 15:00 hours in cages, on grills, without either food or drink.
# The test is carried out in a transparent plastics cage located in a soundproofed and ventilated enclosure. The cage has a chrome steel floor. The metal tip of the bottle containing the drink enters the cage at a height of 6 cm above the metal floor. The floor and the tip of the bottle are connected by electric cables to an apparatus which records the licks of the animal and controls the administration of electric shocks. The apparatus is so regulated that the animal receives an electric shock (between tip and metal floor) every 20 licks of the tip.
# On the day of the test, the animal is given an injection (s.c.) of physiological serum (control) or of the test product 30 minutes before being placed in the test cage. The session begins as soon as the animal has carried out 20 licks and received a first electric shock (duration 0.5 seconds, intensity 0.300 mA). For a period of 3 minutes, the animal receives an electric shock each time it carries out 20 licks.
# The results are the numbers of licks and of shocks received by the animal during the 3 minutes of the test.
# The numbers of licks and of shocks received by the treated animals are compared with those of the control animals by variance analysis, followed by a Dunnett's test with p<0.05. An anxiolytic product increases the number of licks and of shocks received by the animal compared with the controls. For information only, the average number of licks not punished in the animals which have been made thirsty is 674.9±44.5 (N=7) over 3 minutes.
# The effectiveness of a product is expressed by the minimum effective dose (MED), that is to say, the lowest dose producing a significant difference compared with the controls. That dose is 2.5 mg/kg s.c. for the product of Example 1.
structure (smiles),measurement,setting,value
"O=C(Nc1cccnc1)N1CCc2cc3c(cc21)CC3 [Example 1, N-(3-Pyridyl)-2,3,5,6-tetrahydro-1H-cyclobuta[f]indole1-carboxamide]",MED (minimum effective dose),[1],2.5 mg/kg
same,Punished licks (1 shock/20 licks),"male Wistar rats; dose 0.63 mg/kg, N=8",197.5 ± 59.5
same,Punished licks (1 shock/20 licks),"male Wistar rats; dose 2.5 mg/kg, N=8, *p < 0.05",560.1 ± 67.0*
same,Punished licks (1 shock/20 licks),"male Wistar rats; dose 10.0 mg/kg, N=7, *p < 0.05",499.3 ± 95.3*
same,minimum effective dose (MED),"male Wistar rats; 30 minutes before test, lowest dose producing a significant difference compared with the controls (p<0.05)",2.5 mg/kg
